This is an account of results in patent US10000471B2, “Pyrazole P38 map kinase inhibitors” (Respivert Limited, priority 2010, dated 2018).

Some results are limits rather than exact numbers.

The target of data set [1] is T1, p38 MAPKα isoform (MAPK14) (Homo sapiens, UniProt Q16539).
T1 construct: purchased Invitrogen
The data set is described as follows: Enzyme inhibition assay (FRET, Z-LYTE), p38 MAPKα via MAPKAP-K2 activation. The data set is classed as biochemical. The note with it: read-out: Enzyme Inhibition IC50 p38α. As for the experimental part: (§1) The enzyme inhibitory activities of compounds disclosed herein were determined by fluorescence resonance energy transfer (FRET) using synthetic peptides labelled with both donor and acceptor fluorophores (Z-LYTE, Invitrogen Ltd., Paisley, UK). Recombinant, phosphorylated p38 MAPKγ (MAPK12:Invitrogen) was diluted in HEPES buffer, mixed with the test compound at the desired final concentrations and incubated for 2 hr at RT. The FRET peptide (2 μM) and ATP (100 μM) were added to the enzyme/compound mixture and incubated for 1 hr. Development reagent (protease) was added for 1 hr prior to detection in a fluorescence microplate reader (Varioskan® Flash, ThermoFisher Scientific). The site-specific protease cleaves non-phosphorylated peptide only and eliminates the FRET signal. Phosphorylation levels of each reaction were calculated using the ratio of coumarin emission (donor) over fluorescein emission (acceptor) for which high ratios indicate high phosphorylation and low ratios indicate low phosphorylation levels. The percentage inhibition of each reaction was calculated relative to non-inhibited control and the 50% inhibitory concentration (IC50 value) then calculated from the concentration-response curve.
For the p38 MAPKα isoform (MAPK14: Invitrogen), enzyme activity was evaluated indirectly by determining the level of activation/phosphorylation of the down-stream molecule, MAPKAP-K2. The p38 MAPKα protein was mixed with the test compound for 2 hr at RT. […] Development reagent was then added and the mixture incubated for 1 hr before detection by fluorescence completed the assay protocol.

Data set [2] concerns Differentiated U937 cells. Description: Cell viability MTT assay. It counts as cell-based, human. The note with it: negative = apparent increase in viability; for MTT Assay (Viability) 4 h d-U937, percentage loss of cell viability: 4 hr in 5% FCS; for MTT Assay (Viability) 24 h d-U937, percentage loss of cell viability: 24 h in 10% FCS. As for the experimental part:
Differentiated U937 cells were pre-incubated with each test compound under two protocols: the first for 4 hr in 5% FCS and the second in 10% FCS for 24 h. The supernatant was replaced with 200 μL of new media and 10 μL of MTT stock solution (5 mg/mL) was added to each well. After incubation for 1 hr the media were removed, 200 μL of DMSO was added to each well and the plates were shaken lightly for 1 hr prior to reading the absorbance at 550 nm. The percentage loss of cell viability was calculated for each well relative to vehicle (0.5% DMSO) treatment. Consequently an apparent increase in cell viability for drug treatment relative to vehicle is tabulated as a negative percentage.
A general note: Formazan colour is commonly taken as a measure of viable cells.

For data set [3], the target named is T2, p38 MAPKγ (MAPK12) (Homo sapiens, UniProt P53778).
T2 construct: purchased Invitrogen
T2 sequence (P53778 1-367): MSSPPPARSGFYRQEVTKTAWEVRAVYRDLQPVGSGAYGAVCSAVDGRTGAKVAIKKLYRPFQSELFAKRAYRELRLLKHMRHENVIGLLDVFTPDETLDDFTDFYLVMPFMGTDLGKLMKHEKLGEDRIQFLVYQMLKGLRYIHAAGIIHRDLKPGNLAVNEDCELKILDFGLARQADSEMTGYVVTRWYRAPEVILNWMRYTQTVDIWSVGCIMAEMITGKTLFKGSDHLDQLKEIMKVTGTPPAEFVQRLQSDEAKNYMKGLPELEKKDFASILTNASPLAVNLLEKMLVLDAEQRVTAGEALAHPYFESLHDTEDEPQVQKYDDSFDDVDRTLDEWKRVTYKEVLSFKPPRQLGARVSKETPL
The data set is described as follows: Enzyme inhibition assay (FRET, Z-LYTE), p38 MAPKγ. It counts as biochemical. The note with it: read-out: Enzyme Inhibition IC50 p38γ. As for the experimental part: as §1

The subject of data set [4] is ICAM-1 induction in BEAS2B cells. The data set is described as follows: Poly I:C-induced ICAM-1 induction in BEAS2B cells. It counts as cell-based, human. Particulars: Homo sapiens, BEAS-2B, read-out: PolyIC/ICAM1 IC50 BEAS2B. As for the experimental part: Poly I:C-Induced ICAM-1 Induction in BEAS2B Cells
Poly I:C (1 μg/mL) (Invivogene Ltd., San Diego, Calif.) was transfected into BEAS2B cells (human bronchial epithelial cells, ATCC) with Oligofectamine (Invitrogen, Carlsbad, Calif.). Cells were pre-incubated with final concentrations of test compounds for 2 hr and the level of ICAM1 expression on the cell surface was determined by cell-based ELISA. At a time point 18 hr after poly I:C transfection, cells were fixed with 4% formaldehyde in PBS and then endogenous peroxidase was quenched by the addition of 0.1% sodium azide and 1% hydrogen peroxide. Cells were washed with wash-buffer (0.1% Tween in PBS: PBS-Tween). and after blocking the wells with 5% milk in PBS-Tween for 1 hr, the cells were incubated with anti-human ICAM-1 antibody (Cell Signaling Technology, Danvers, Mass.) in 1% BSA PBS overnight at 4° C. The cells were washed with PBS-Tween and incubated with the secondary antibody (HRP-conjugated anti-rabbit IgG, Dako Ltd., Glostrup, Denmark). The ICAM-1 signal was detected by adding substrate and reading the absorbance at 450 nm against a reference wavelength of 655 nm using a spectrophotometer. The cells were then washed with PBS-Tween and total cell numbers in each well were determined by reading absorbance at 595 nm after Crystal Violet staining and elution by 1% SDS solution. The measured OD 450-655 readings were corrected for cell number by dividing with the OD595 reading in each well. The inhibition of ICAM-1 expression was calculated at each concentration of test compound by comparison with vehicle control. The 50% inhibitory concentration (IC50) was determined from the resultant concentration-response curve.

The test system of data set [5] is TNFα release in d-U937 cells. Description: LPS-induced TNFα release in d-U937 cells. The data set is classed as cell-based, human. Particulars: Homo sapiens, dU937, relative to 10 μg/mL BIRB796, read-out: LPS/TNFα REC50 d-U937. As for the experimental part:
(§2) LPS-Induced TNFα/IL-8 Release in d-U937 Cells
(§3) U937 cells, a human monocytic cell line, were differentiated to macrophage-type cells by incubation with phorbol myristate acetate (PMA; 100 ng/ml) for 48 to 72 hr. Cells were pre-incubated with final concentrations of test compound for 2 hr and were then stimulated with 0.1 μg/mL of LPS (from E. Coli: O111:B4, Sigma) for 4 hr. The supernatant was collected for determination of TNFα and IL-8 concentrations by sandwich ELISA (Duo-set, R&D systems). The inhibition of TNFα production was calculated as a percentage of that achieved by 10 μg/mL of BIRB796 at each concentration of test compound by comparison against vehicle control. The relative 50% effective concentration (REC50) was determined from the resultant concentration-response curve. The inhibition of IL-8 production was calculated at each concentration of test compound by comparison with vehicle control. The 50% inhibitory concentration (IC50) was determined from the resultant concentration-response curve.

Data set [6] deals with TNFα release in THP-1 cells. The data set is described as follows: LPS-induced TNFα release in THP-1 cells. The note with it: Homo sapiens. The data set is classed as cell-based, human. As for the experimental part: LPS-Induced TNFα Release in THP-1 Cells
THP-1 cells, a human monocytic cell line, were stimulated with 3 μg/mL of LPS (from E. Coli; 0111:B4, Sigma) for 4 hr and the supernatant collected for determination of the TNFα concentration by sandwich ELISA (Duo-set, R&D systems). The inhibition of TNFα production was calculated at each concentration by comparison with vehicle control. The 50% inhibitory concentration (IC50) was determined from the resultant concentration-response curve.

The test system of data set [7] is IL-8 release in d-U937 cells. Description: LPS-induced IL-8 release in d-U937 cells. The note with it: Homo sapiens, dU937. It counts as cell-based, human. As for the experimental part: as §2, §3

T1 sequence (Q16539 whole entry, canonical isoform): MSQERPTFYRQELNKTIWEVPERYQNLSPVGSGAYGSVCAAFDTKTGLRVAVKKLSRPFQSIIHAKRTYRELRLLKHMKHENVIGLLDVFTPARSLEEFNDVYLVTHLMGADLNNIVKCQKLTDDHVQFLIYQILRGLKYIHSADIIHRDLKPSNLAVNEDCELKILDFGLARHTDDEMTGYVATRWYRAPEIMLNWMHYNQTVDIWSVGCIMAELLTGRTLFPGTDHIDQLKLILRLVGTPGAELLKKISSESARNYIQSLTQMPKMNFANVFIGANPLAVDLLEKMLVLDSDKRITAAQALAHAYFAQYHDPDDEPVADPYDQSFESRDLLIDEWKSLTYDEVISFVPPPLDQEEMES

On to `CSc1ccc(-n2nc(C(C)(C)C)cc2NC(=O)Nc2ccc(Oc3ccnc(NC(=O)N4CCCC4)c3)c(Cl)c2Cl)cc1` [Example 10, N-(4-(4-(3-(3-tert-Butyl-1-(4-(methylthio)phenyl)-1H-pyrazol-5-yl)ureido)-2,3-dichlorophenoxy)pyridin-2-yl)pyrrolidine-1-carboxamide], for which the IC50 came to 36.7 nM in data set [1]; 184 nM in data set [3]; 1.7 nM in data set [4]; 0.4 nM in data set [6]; 1.2 nM in data set [7]. Also, the “MTT Assay (Viability) 4 h d-U937, percentage loss of cell viability” value in data set [2] is −18.7%. Moreover, the “MTT Assay (Viability) 24 h d-U937, percentage loss of cell viability” value in data set [2] amounted to 17.0%. Moreover, in data set [5], the EC50 worked out at 0.8 nM.

Turning to `CN(C)[C@@H]1CCN(C(=O)Nc2cc(Oc3ccc(NC(=O)Nc4cc(C(C)(C)C)nn4-c4ccc(O)cc4)c(Cl)c3Cl)ccn2)C1` [Example 11, (R)—N-(4-(4-(3-(3-tert-Butyl-1-(4-hydroxyphenyl)-1H-pyrazol-5-yl)ureido)-2,3-dichlorophenoxy)pyridin-2-yl)-3-(dimethylamino)pyrrolidine-1-carboxamide], the IC50 was determined as 15.9 nM in data set [1]; 38.7 nM in data set [3]; 1.8 nM in data set [4]; 0.7 nM in data set [6]; 4.5 nM in data set [7]. For the same compound, the “MTT Assay (Viability) 4 h d-U937, percentage loss of cell viability” value in data set [2] was −1.3%. In addition, the “MTT Assay (Viability) 24 h d-U937, percentage loss of cell viability” value in data set [2] is recorded as 42.0%. Moreover, in data set [5], the EC50 is 0.8 nM.

Consider `CCNC(=O)Nc1cc(Oc2ccc(NC(=O)Nc3cc(C(C)(C)C)nn3-c3ccc(OC)cc3)c(Cl)c2Cl)ccn1` [Example 12, 1-(4-(4-(3-(3-tert-Butyl-1-(4-methoxyphenyl)-1H-pyrazol-5-yl)ureido)-2,3-dichlorophenoxy)pyridin-2-yl)-3-ethylurea], for which the IC50 in data set [1] stood at 24.7 nM; in data set [3], 57.2 nM; in data set [4], 2.7 nM; in data set [6], 1.6 nM; in data set [7] it was 0.2 nM. Also, the “MTT Assay (Viability) 4 h d-U937, percentage loss of cell viability” value in data set [2] is on record as 5.0%. Also, the “MTT Assay (Viability) 24 h d-U937, percentage loss of cell viability” value in data set [2] was 24.1%. The EC50 in data set [5] was 1.7 nM.

In the case of `COc1ccc(-n2nc(C(C)(C)C)cc2NC(=O)Nc2ccc(Oc3ccnc(NC(=O)NCCN(C)C)c3)c(Cl)c2Cl)cc1` [Example 13, 1-(3-tert-Butyl-1-(4-methoxyphenyl)-1H-pyrazol-5-yl)-3-(2,3-dichloro-4-((2-(3-(2-(dimethylamino)ethyl)ureido)pyridin-4-yl)oxy)phenyl)urea], the IC50 in data set [1] is 11.2 nM; in data set [3], 21.7 nM; in data set [4], 2.1 nM; in data set [6], 1.7 nM; in data set [7] it was 1.3 nM. The “MTT Assay (Viability) 4 h d-U937, percentage loss of cell viability” value in data set [2] is on record as −6.4%. For the same compound, in data set [2], the “MTT Assay (Viability) 24 h d-U937, percentage loss of cell viability” value is recorded as 63.9%. For the same compound, in data set [5], the EC50 worked out at 2.1 nM.

For the compound `COCC(=O)Nc1cc(COc2ccc(NC(=O)Nc3cc(C(C)(C)C)nn3-c3ccc(C)cc3)c(Cl)c2Cl)ccn1` [Example 14, N-(4-((4-(3-(3-tert-Butyl-1-p-tolyl-1H-pyrazol-5-yl)ureido)-2,3-dichlorophenoxy)methyl)pyridin-2-yl)-2-methoxyacetamide], the IC50 in data set [1] is 17 nM; in data set [3] it was 33.1 nM; in data set [4] it was 32.2 nM; in data set [6], 6.1 nM; in data set [7], 70.2 nM. Also, the “MTT Assay (Viability) 4 h d-U937, percentage loss of cell viability” value in data set [2] is on record as −7.9%. Moreover, the “MTT Assay (Viability) 24 h d-U937, percentage loss of cell viability” value in data set [2] is on record as 49.6%. Also, the EC50 in data set [5] was determined as 40.8 nM.

Consider `COCC(=O)Nc1cc(COc2ccc(NC(=O)Nc3cc(C(C)(C)C)nn3-c3ccc(OC)cc3)c(Cl)c2Cl)ccn1` [Example 15, N-(4-((4-(3-(3-tert-Butyl-1-(4-methoxyphenyl)-1H-pyrazol-5-yl)ureido)-2,3-dichlorophenoxy)methyl)pyridin-2-yl)-2-methoxyacetamide], for which the IC50 is 15.7 nM in data set [1]; 107 nM in data set [3]; 31.2 nM in data set [4]; 19.9 nM in data set [6]; 162 nM in data set [7]. Besides, in data set [2], the “MTT Assay (Viability) 4 h d-U937, percentage loss of cell viability” value is given as −12.2%. Further, the “MTT Assay (Viability) 24 h d-U937, percentage loss of cell viability” value in data set [2] is reported as 12.4%. Further, in data set [5], the EC50 was 83.8 nM.

Consider `COCC(=O)Nc1cc(COc2ccc(NC(=O)Nc3cc(C(C)(C)C)nn3-c3ccc(C)cc3)c3cccnc23)ccn1` [Example 16, N-(4-((5-(3-(3-tert-Butyl-1-p-tolyl-1H-pyrazol-5-yl)ureido)quinolin-8-yloxy)methyl)pyridin-2-yl)-2-methoxyacetamide], for which the IC50 in data set [1] was 36.7 nM; in data set [3], 1440 nM; in data set [4], > 1690 nM; in data set [6], > 1690 nM; in data set [7], 4960 nM. Also, the “MTT Assay (Viability) 4 h d-U937, percentage loss of cell viability” value in data set [2] is recorded as −8.1%. In addition, the “MTT Assay (Viability) 24 h d-U937, percentage loss of cell viability” value in data set [2] was −21.3%. For the same compound, in data set [5], the EC50 amounted to 876 nM.
